Test results from PubChem BioAssay (NCI).
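Following 48 hours of exposure in 96-well plates, responses at five concentrations were used to interpolate endpoints linearly. At the TGI there is no net growth.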

Experiments:
Experiment in all cases: NCI-60 cell line screen, 48 h
MOLT-4 leukemia = tested on: MOLT-4 leukemia
NCI-H522 lung = tested on: NCI-H522 lung
UO-31 renal = tested on: UO-31 renal
SN12C renal = tested on: SN12C renal
LOX IMVI melanoma = tested on: LOX IMVI melanoma
CAKI-1 renal = tested on: CAKI-1 renal
COLO 205 colon = tested on: COLO 205 colon
HCC-2998 colon = tested on: HCC-2998 colon
RXF 393 renal = tested on: RXF 393 renal
OVCAR-3 ovarian = tested on: OVCAR-3 ovarian
OVCAR-8 ovarian = tested on: OVCAR-8 ovarian
DMS 114 small cell lung = tested on: DMS 114 small cell lung
SF-268 CNS = tested on: SF-268 CNS
HL-60(TB) leukemia = tested on: HL-60(TB) leukemia
HOP-92 NSCLC = tested on: HOP-92 NSCLC
A549 NSCLC = tested on: A549 NSCLC
OVCAR-5 ovarian = tested on: OVCAR-5 ovarian
UACC-257 melanoma = tested on: UACC-257 melanoma
M19-MEL melanoma = tested on: M19-MEL melanoma
786-0 renal = tested on: 786-0 renal
SK-MEL-28 melanoma = tested on: SK-MEL-28 melanoma
SNB-78 CNS = tested on: SNB-78 CNS
DLD-1 colon = tested on: DLD-1 colon
HCT-116 colon = tested on: HCT-116 colon
RPMI-8226 leukemia = tested on: RPMI-8226 leukemia
HOP-62 NSCLC = tested on: HOP-62 NSCLC
MALME-3M melanoma = tested on: MALME-3M melanoma
NCI-H23 lung = tested on: NCI-H23 lung
KM12 colon = tested on: KM12 colon
HT29 colon = tested on: HT29 colon
SR leukemia = tested on: SR leukemia
ACHN renal = tested on: ACHN renal
NCI-H460 lung = tested on: NCI-H460 lung
SK-MEL-2 melanoma = tested on: SK-MEL-2 melanoma
CCRF-CEM leukemia = tested on: CCRF-CEM leukemia
EKVX NSCLC = tested on: EKVX NSCLC
M14 melanoma = tested on: M14 melanoma
NCI-H226 lung = tested on: NCI-H226 lung
SF-295 CNS = tested on: SF-295 CNS
U251 CNS = tested on: U251 CNS
A498 renal = tested on: A498 renal
SW-620 colon = tested on: SW-620 colon
OVCAR-4 ovarian = tested on: OVCAR-4 ovarian
KM20L2 colon = tested on: KM20L2 colon
TK-10 renal = tested on: TK-10 renal
SNB-19 CNS = tested on: SNB-19 CNS
SF-539 CNS = tested on: SF-539 CNS
SK-MEL-5 melanoma = tested on: SK-MEL-5 melanoma
LXFL 529 NSCLC = tested on: LXFL 529 NSCLC
DMS 273 small cell lung = tested on: DMS 273 small cell lung
K-562 leukemia = tested on: K-562 leukemia
IGROV1 ovarian = tested on: IGROV1 ovarian
SNB-75 CNS = tested on: SNB-75 CNS
UACC-62 melanoma = tested on: UACC-62 melanoma
XF 498 CNS = tested on: XF 498 CNS
HCT-15 colon = tested on: HCT-15 colon
SK-OV-3 ovarian = tested on: SK-OV-3 ovarian

For C/C(C=O)=C1\C(O)C[C@]1(C)C1CC(C)(C)CC1O (stereo partly specified), which TGI (MOLT-4 leukemia) is on record?
The TGI was > 100 µM.

What about the TGI (NCI-H522 lung) of the same compound?
The TGI was > 100 µM.

And the TGI (UO-31 renal)?
The TGI was > 100 µM.

And the TGI (SN12C renal)?
Its TGI is > 100 µM.

And the TGI (LOX IMVI melanoma)?
The TGI was > 100 µM.

What about the TGI (CAKI-1 renal) of the same compound?
The TGI was > 100 µM.

And the TGI (COLO 205 colon)?
Its TGI is > 100 µM.

And the TGI (HCC-2998 colon)?
Its TGI is > 100 µM.

And the TGI (RXF 393 renal)?
The TGI was > 100 µM.

What about the TGI (OVCAR-3 ovarian) of the same compound?
Its TGI is > 100 µM.

And the TGI (OVCAR-8 ovarian)?
The TGI was > 100 µM.

And the TGI (DMS 114 small cell lung)?
The TGI was > 100 µM.

What about the TGI (SF-268 CNS) of the same compound?
The TGI was > 100 µM.

What about the TGI (HL-60(TB) leukemia) of the same compound?
Its TGI is > 100 µM.

What about the TGI (HOP-92 NSCLC) of the same compound?
The TGI was > 100 µM.

And the TGI (A549 NSCLC)?
Its TGI is > 100 µM.

And the TGI (OVCAR-5 ovarian)?
The TGI was > 100 µM.

What about the TGI (UACC-257 melanoma) of the same compound?
The TGI was > 100 µM.

What about the TGI (M19-MEL melanoma) of the same compound?
The TGI was > 100 µM.

What about the TGI (786-0 renal) of the same compound?
The TGI was > 100 µM.

What about the TGI (SK-MEL-28 melanoma) of the same compound?
The TGI was > 100 µM.

And the TGI (SNB-78 CNS)?
Its TGI is > 100 µM.

And the TGI (DLD-1 colon)?
Its TGI is > 100 µM.

And the TGI (HCT-116 colon)?
The TGI was > 100 µM.

And the TGI (RPMI-8226 leukemia)?
Its TGI is > 100 µM.

And the TGI (HOP-62 NSCLC)?
The TGI was > 100 µM.

And the TGI (MALME-3M melanoma)?
Its TGI is > 100 µM.

And the TGI (NCI-H23 lung)?
The TGI was > 100 µM.

What about the TGI (KM12 colon) of the same compound?
Its TGI is > 100 µM.

What about the TGI (HT29 colon) of the same compound?
The TGI was > 100 µM.

What about the TGI (SR leukemia) of the same compound?
Its TGI is > 100 µM.

And the TGI (ACHN renal)?
The TGI was > 100 µM.

And the TGI (NCI-H460 lung)?
The TGI was > 100 µM.

What about the TGI (SK-MEL-2 melanoma) of the same compound?
Its TGI is > 100 µM.

And the TGI (CCRF-CEM leukemia)?
Its TGI is > 100 µM.

What about the TGI (EKVX NSCLC) of the same compound?
The TGI was > 100 µM.

What about the TGI (M14 melanoma) of the same compound?
Its TGI is > 100 µM.

And the TGI (NCI-H226 lung)?
Its TGI is > 100 µM.

And the TGI (SF-295 CNS)?
The TGI was > 100 µM.

And the TGI (U251 CNS)?
Its TGI is > 100 µM.

And the TGI (A498 renal)?
The TGI was > 100 µM.

And the TGI (SW-620 colon)?
Its TGI is > 100 µM.

What about the TGI (OVCAR-4 ovarian) of the same compound?
The TGI was 93.9 µM.

What about the TGI (KM20L2 colon) of the same compound?
Its TGI is > 100 µM.

And the TGI (TK-10 renal)?
The TGI was > 100 µM.

What about the TGI (SNB-19 CNS) of the same compound?
Its TGI is > 100 µM.

What about the TGI (SF-539 CNS) of the same compound?
The TGI was > 100 µM.

What about the TGI (SK-MEL-5 melanoma) of the same compound?
Its TGI is > 100 µM.

What about the TGI (LXFL 529 NSCLC) of the same compound?
Its TGI is > 100 µM.

What about the TGI (DMS 273 small cell lung) of the same compound?
The TGI was > 100 µM.

And the TGI (K-562 leukemia)?
The TGI was > 100 µM.

With c1ccc(C2=NN(c3ccccc3)C3(S2)SC(c2ccccc2)(c2ccccc2)c2ccccc23)cc1 (stereo unspecified) as the compound, how does the TGI (MOLT-4 leukemia) read?
Its TGI is > 100 µM.

What about the TGI (NCI-H522 lung) of the same compound?
Its TGI is > 100 µM.

And the TGI (UO-31 renal)?
Its TGI is > 100 µM.

And the TGI (SN12C renal)?
The TGI was > 100 µM.

What about the TGI (LOX IMVI melanoma) of the same compound?
Its TGI is > 100 µM.

What about the TGI (CAKI-1 renal) of the same compound?
Its TGI is > 100 µM.

And the TGI (COLO 205 colon)?
Its TGI is > 100 µM.

And the TGI (HCC-2998 colon)?
The TGI was > 100 µM.

And the TGI (OVCAR-3 ovarian)?
The TGI was > 100 µM.

What about the TGI (OVCAR-8 ovarian) of the same compound?
Its TGI is > 100 µM.

And the TGI (DMS 114 small cell lung)?
Its TGI is > 100 µM.

And the TGI (SF-268 CNS)?
Its TGI is > 100 µM.

And the TGI (HL-60(TB) leukemia)?
The TGI was > 100 µM.

And the TGI (HOP-92 NSCLC)?
Its TGI is > 100 µM.

What about the TGI (A549 NSCLC) of the same compound?
Its TGI is > 100 µM.

And the TGI (OVCAR-5 ovarian)?
Its TGI is > 100 µM.

What about the TGI (IGROV1 ovarian) of the same compound?
The TGI was > 100 µM.

And the TGI (UACC-257 melanoma)?
The TGI was > 100 µM.

What about the TGI (M19-MEL melanoma) of the same compound?
Its TGI is > 100 µM.

And the TGI (786-0 renal)?
Its TGI is > 100 µM.

And the TGI (SNB-75 CNS)?
The TGI was > 100 µM.

What about the TGI (UACC-62 melanoma) of the same compound?
Its TGI is > 100 µM.

What about the TGI (SK-MEL-28 melanoma) of the same compound?
Its TGI is > 100 µM.

And the TGI (SNB-78 CNS)?
The TGI was > 100 µM.

What about the TGI (DLD-1 colon) of the same compound?
Its TGI is > 100 µM.

What about the TGI (HCT-116 colon) of the same compound?
The TGI was > 100 µM.

And the TGI (RPMI-8226 leukemia)?
Its TGI is > 100 µM.

And the TGI (HOP-62 NSCLC)?
The TGI was > 100 µM.

And the TGI (MALME-3M melanoma)?
The TGI was > 100 µM.

And the TGI (NCI-H23 lung)?
Its TGI is > 100 µM.

And the TGI (KM12 colon)?
Its TGI is > 100 µM.

And the TGI (XF 498 CNS)?
Its TGI is > 100 µM.

And the TGI (HT29 colon)?
The TGI was > 100 µM.

And the TGI (ACHN renal)?
Its TGI is > 100 µM.

And the TGI (NCI-H460 lung)?
The TGI was > 100 µM.

What about the TGI (SK-MEL-2 melanoma) of the same compound?
The TGI was > 100 µM.

And the TGI (HCT-15 colon)?
The TGI was > 100 µM.

What about the TGI (CCRF-CEM leukemia) of the same compound?
The TGI was > 100 µM.

What about the TGI (EKVX NSCLC) of the same compound?
Its TGI is > 100 µM.

And the TGI (SK-OV-3 ovarian)?
The TGI was > 100 µM.

And the TGI (M14 melanoma)?
Its TGI is > 100 µM.

What about the TGI (NCI-H226 lung) of the same compound?
Its TGI is > 100 µM.

What about the TGI (SF-295 CNS) of the same compound?
Its TGI is > 100 µM.

And the TGI (U251 CNS)?
The TGI was > 100 µM.

And the TGI (A498 renal)?
The TGI was > 100 µM.

What about the TGI (SW-620 colon) of the same compound?
Its TGI is > 100 µM.

What about the TGI (OVCAR-4 ovarian) of the same compound?
The TGI was > 100 µM.

And the TGI (KM20L2 colon)?
Its TGI is > 100 µM.

What about the TGI (TK-10 renal) of the same compound?
The TGI was > 100 µM.

And the TGI (SNB-19 CNS)?
The TGI was > 100 µM.

What about the TGI (SF-539 CNS) of the same compound?
The TGI was > 100 µM.

And the TGI (SK-MEL-5 melanoma)?
Its TGI is > 100 µM.

And the TGI (LXFL 529 NSCLC)?
The TGI was > 100 µM.

What about the TGI (DMS 273 small cell lung) of the same compound?
Its TGI is > 100 µM.

What about the TGI (K-562 leukemia) of the same compound?
The TGI was > 100 µM.
